Consider 17 molecules from ChEMBL document CHEMBL1143444, “Dual EGFR/ErbB-2 inhibitors from novel pyrrolidinyl-acetylenic thieno[3,2-d]pyrimidines” (Bioorg Med Chem Lett, 2008).

A word on the IC50: it is the midpoint of a concentration-inhibition curve.

The test system of one data set is HN5. Description: Antiproliferative activity against human HN5 cells overexpressing EGFR after 3 days by methylene blue staining. As to conditions: HN5, 72 h.
Data set [1] is described as follows: Antiproliferative activity against human foreskin fibroblast after 3 days by methylene blue staining. Conditions: 72 h.
The target of data set [2] is Epidermal growth factor receptor (Homo sapiens, UniProt P00533). The experiment in a line: Inhibition of EGFR kinase.
Another data set concerns BT-474. The experiment in a line: Antiproliferative activity against human BT474 cells overexpressing ErbB2 after 3 days by methylene blue staining. Conditions: BT-474, 72 h.
The target of data set [3] is Receptor tyrosine-protein kinase erbB-2 (Homo sapiens, UniProt P04626).
Description: Inhibition of ErbB2 kinase
Another data set has as its system Mus musculus. The experiment in a line: Dose normalized AUC in po dosed mouse. Format: ADME, organism-based. As to conditions: in vivo.

Chain of Epidermal growth factor receptor (P00533 whole entry): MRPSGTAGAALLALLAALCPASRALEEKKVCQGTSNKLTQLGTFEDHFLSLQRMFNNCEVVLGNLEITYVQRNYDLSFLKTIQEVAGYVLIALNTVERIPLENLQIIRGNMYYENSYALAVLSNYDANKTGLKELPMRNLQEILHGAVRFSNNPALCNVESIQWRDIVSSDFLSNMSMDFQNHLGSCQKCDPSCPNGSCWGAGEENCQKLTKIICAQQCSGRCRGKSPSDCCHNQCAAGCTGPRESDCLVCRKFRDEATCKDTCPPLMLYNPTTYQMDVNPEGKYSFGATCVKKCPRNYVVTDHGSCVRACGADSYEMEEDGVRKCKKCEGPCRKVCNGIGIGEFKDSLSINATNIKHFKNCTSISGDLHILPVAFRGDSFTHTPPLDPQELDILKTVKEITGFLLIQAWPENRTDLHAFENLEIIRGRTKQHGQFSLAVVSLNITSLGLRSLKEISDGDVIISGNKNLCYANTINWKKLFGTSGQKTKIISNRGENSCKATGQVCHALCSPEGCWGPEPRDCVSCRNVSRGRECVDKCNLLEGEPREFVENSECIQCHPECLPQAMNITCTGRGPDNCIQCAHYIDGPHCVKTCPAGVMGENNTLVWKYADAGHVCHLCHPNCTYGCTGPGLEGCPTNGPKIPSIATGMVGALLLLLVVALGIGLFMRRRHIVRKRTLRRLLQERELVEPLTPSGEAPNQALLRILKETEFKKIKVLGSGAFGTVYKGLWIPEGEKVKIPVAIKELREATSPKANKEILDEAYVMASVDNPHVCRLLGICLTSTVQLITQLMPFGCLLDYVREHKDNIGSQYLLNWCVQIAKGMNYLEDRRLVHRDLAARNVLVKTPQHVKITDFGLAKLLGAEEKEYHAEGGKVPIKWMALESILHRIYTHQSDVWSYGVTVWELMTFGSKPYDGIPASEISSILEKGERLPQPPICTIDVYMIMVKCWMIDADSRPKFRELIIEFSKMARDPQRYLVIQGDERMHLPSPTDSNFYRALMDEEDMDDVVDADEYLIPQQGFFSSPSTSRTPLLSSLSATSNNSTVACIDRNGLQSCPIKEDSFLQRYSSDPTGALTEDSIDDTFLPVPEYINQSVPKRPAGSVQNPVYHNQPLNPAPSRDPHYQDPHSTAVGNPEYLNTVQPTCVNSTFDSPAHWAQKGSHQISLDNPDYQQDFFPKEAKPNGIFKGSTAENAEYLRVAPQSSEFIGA
Chain of Receptor tyrosine-protein kinase erbB-2 (P04626 whole entry): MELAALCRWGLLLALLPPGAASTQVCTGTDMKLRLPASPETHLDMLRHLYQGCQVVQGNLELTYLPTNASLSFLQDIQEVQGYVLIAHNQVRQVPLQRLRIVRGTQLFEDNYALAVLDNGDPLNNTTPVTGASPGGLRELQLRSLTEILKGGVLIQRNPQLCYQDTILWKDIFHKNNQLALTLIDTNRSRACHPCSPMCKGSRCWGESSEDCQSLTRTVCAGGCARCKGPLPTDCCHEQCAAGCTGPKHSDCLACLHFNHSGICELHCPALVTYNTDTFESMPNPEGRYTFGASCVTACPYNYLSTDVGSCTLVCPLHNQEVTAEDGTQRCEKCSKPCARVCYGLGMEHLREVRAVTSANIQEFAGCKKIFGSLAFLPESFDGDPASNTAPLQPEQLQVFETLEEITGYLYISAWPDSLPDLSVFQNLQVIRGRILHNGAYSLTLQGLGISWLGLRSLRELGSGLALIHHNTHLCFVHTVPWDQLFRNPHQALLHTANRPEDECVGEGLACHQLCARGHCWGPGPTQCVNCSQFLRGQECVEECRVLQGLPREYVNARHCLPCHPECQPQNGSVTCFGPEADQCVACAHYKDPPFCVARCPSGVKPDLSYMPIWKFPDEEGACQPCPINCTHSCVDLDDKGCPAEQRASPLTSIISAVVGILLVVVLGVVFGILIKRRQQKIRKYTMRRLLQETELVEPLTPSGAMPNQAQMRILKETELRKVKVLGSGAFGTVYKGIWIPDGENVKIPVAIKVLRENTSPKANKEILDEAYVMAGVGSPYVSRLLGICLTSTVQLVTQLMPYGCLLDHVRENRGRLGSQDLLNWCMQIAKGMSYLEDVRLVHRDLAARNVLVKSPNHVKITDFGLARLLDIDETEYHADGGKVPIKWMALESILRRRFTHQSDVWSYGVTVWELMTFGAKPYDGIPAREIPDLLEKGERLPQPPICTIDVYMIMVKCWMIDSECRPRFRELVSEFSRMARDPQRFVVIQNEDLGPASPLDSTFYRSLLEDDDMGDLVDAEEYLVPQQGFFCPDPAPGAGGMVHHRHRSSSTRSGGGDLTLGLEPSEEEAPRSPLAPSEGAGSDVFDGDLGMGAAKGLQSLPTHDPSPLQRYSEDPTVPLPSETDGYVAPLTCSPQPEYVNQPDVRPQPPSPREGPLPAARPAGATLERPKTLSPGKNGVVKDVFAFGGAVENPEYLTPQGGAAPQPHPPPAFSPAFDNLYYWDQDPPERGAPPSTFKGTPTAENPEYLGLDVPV

`COCCN1CCC[C@@H]1C#Cc1cc2ncnc(Nc3ccc(OCc4cccc(F)c4)c(Cl)c3)c2s1`: the IC50 was 190 nM with HN5, more than 1000 nM in data set [1] and 130 nM in data set [2].

With `O=C(O[C@H]1CN[C@H](C#Cc2cc3ncnc(Nc4ccc(OCc5cccc(F)c5)c(Cl)c4)c3s2)C1)N1CCOCC1` [GW869810X], the IC50 in the data set on BT-474 is 30 nM; in data set [1] it was more than 1000 nM.

As to `CCOC(=O)N[C@H]1CN[C@H](C#Cc2cc3ncnc(Nc4ccc(OCc5cccc(F)c5)c(Cl)c4)c3s2)C1`, the IC50 was 113 nM in the data set on HN5; 40 nM in the data set on BT-474; more than 1000 nM in data set [1]; 60 nM in data set [2]; 78 nM in data set [3].

Turning to `CCO[C@H]1CN[C@H](C#Cc2cc3ncnc(Nc4ccc(OCc5cccc(F)c5)c(Cl)c4)c3s2)C1`, the 50% inhibitory concentration (IC50) with HN5 was 99 nM; with BT-474, 45 nM; in data set [1] it was more than 1000 nM; in data set [2], 115 nM; in data set [3] it was 98 nM.

On to `O[C@H]1CN[C@H](C#Cc2cc3ncnc(Nc4ccc(OCc5cccc(F)c5)c(Cl)c4)c3s2)C1`, for which the IC50 in the data set with BT-474 is 39 nM; in data set [1], more than 1000 nM; in data set [3], 11 nM. The molecule also yielded an AUC in the data set with Mus musculus of 9 ng·kg·h/mg/mL.

With `Fc1cccc(COc2ccc(Nc3ncnc4cc(C#C[C@H]5CCCN5)sc34)cc2Cl)c1`, the IC50 was 238 nM in the data set with HN5, 94 nM in the data set with BT-474 and more than 1000 nM in data set [1].

For `CCC(=O)O[C@H]1CN[C@H](C#Cc2cc3ncnc(Nc4ccc(OCc5cccc(F)c5)c(Cl)c4)c3s2)C1`, the IC50 in the data set on HN5 was 52 nM; in the data set on BT-474, 18 nM; in data set [1], more than 1000 nM; in data set [2] it was 63 nM; in data set [3], 90 nM.

As to `CCOC(=O)O[C@H]1CN[C@H](C#Cc2cc3ncnc(Nc4ccc(OCc5cccc(F)c5)c(Cl)c4)c3s2)C1`, the IC50 with HN5 is 200 nM; in the data set on BT-474, 34 nM; in data set [1], more than 1000 nM; in data set [2] it was 141 nM; in data set [3], 135 nM.

For the molecule `COC(=O)N1CCC[C@@H]1C#Cc1cc2ncnc(Nc3ccc(OCc4cccc(F)c4)c(Cl)c3)c2s1`, the IC50 is 590 nM in the data set on HN5; 1700 nM in the data set on BT-474; more than 1000 nM in data set [1]; 140 nM in data set [2]; 120 nM in data set [3].

With `CS(=O)(=O)N1CCC[C@@H]1C#Cc1cc2ncnc(Nc3ccc(OCc4cccc(F)c4)c(Cl)c3)c2s1`, the IC50 in the data set on HN5 was 550 nM; in the data set on BT-474, 650 nM; in data set [1] it was more than 1000 nM; in data set [2], 120 nM; in data set [3], 88 nM.

For `CC(=O)N1CCC[C@@H]1C#Cc1cc2ncnc(Nc3ccc(OCc4cccc(F)c4)c(Cl)c3)c2s1`, the IC50 in the data set with HN5 was 37 nM; in the data set on BT-474, 670 nM; in data set [1] it was more than 1000 nM; in data set [2], 58 nM; in data set [3], 38 nM.

For `CCNC(=O)O[C@H]1CN[C@H](C#Cc2cc3ncnc(Nc4ccc(OCc5cccc(F)c5)c(Cl)c4)c3s2)C1` [GSK-192082A], the IC50 is 95 nM in the data set with HN5, 30 nM in the data set on BT-474, more than 1000 nM in data set [1] and 32 nM in data set [2]. The AUC in the data set on Mus musculus was determined as 61 ng·kg·h/mg/mL.

`CN(C)C(=O)O[C@H]1CN[C@H](C#Cc2cc3ncnc(Nc4ccc(OCc5cccc(F)c5)c(Cl)c4)c3s2)C1` [GSK-182497A]: the IC50 is 30 nM with BT-474 and more than 1000 nM in data set [1].

As to `CS(=O)(=O)O[C@H]1CN[C@H](C#Cc2cc3ncnc(Nc4ccc(OCc5cccc(F)c5)c(Cl)c4)c3s2)C1`, the IC50 with HN5 was 380 nM; in the data set with BT-474, 86 nM; in data set [1], more than 1000 nM; in data set [2], 81 nM; in data set [3], 40 nM.

On to `CNC(=O)O[C@H]1CN[C@H](C#Cc2cc3ncnc(Nc4ccc(OCc5cccc(F)c5)c(Cl)c4)c3s2)C1`, for which the IC50 in the data set with HN5 was 58 nM; with BT-474 it was 28 nM; in data set [1], more than 1000 nM; in data set [2] it was 50 nM; in data set [3], 20 nM. This molecule also gave an AUC in the data set on Mus musculus of 18 ng·kg·h/mg/mL.

`CCS(=O)(=O)N[C@H]1CN[C@H](C#Cc2cc3ncnc(Nc4ccc(OCc5cccc(F)c5)c(Cl)c4)c3s2)C1`: the IC50 in the data set on HN5 was 127 nM; in the data set on BT-474 it was 42 nM; in data set [1], more than 1000 nM; in data set [2], 50 nM.

In the case of `Fc1cccc(COc2ccc(Nc3ncnc4cc(C#C[C@@H]5CCCN5)sc34)cc2Cl)c1`, the IC50 in the data set on HN5 is 536 nM; in the data set with BT-474 it was 205 nM; in data set [1], more than 1000 nM; in data set [2], 109 nM; in data set [3], 54 nM.
